These results are taken from article PMC10542255, “A phase 1 trial of fuzuloparib in combination with apatinib for advanced ovarian and triple-negative breast cancer: efficacy, safety, pharmacokinetics and germline BRCA mutation analysis” (BMC Medicine, 2023).

For series [1] the following is noted: human, in vivo. The protocol:
The study used a standard 3 + 3 dose escalation design. The starting dose of fuzuloparib was 40 mg twice daily (bid) in combination with a fixed dose of apatinib at 250 mg once daily (qd); fuzuloparib could be dose escalated in 20 mg increments to up to 100 mg. An additional dose level of fuzuloparib 80 mg bid plus apatinib 375 mg qd was planned after assessment of the regimen of fuzuloparib 80 mg bid plus apatinib 250 mg qd. If dose escalation of fuzuloparib to 100 mg was completed, dose escalation for apatinib was initiated with two dose level planned: 375 mg qd and 500 mg qd (with fuzuloparib fixed at 100 mg bid). During dose escalation, the next-higher dose level was opened if less than one-third of patients in the previous dose level experienced a dose-limiting toxicity (DLT). Based on preliminary safety and efficacy data in the dose-escalation cohort, dose levels for PK-expansion were selected, with a total of 8–12 patients enrolled in each level. All patients received a single dose of oral fuzuloparib on day 1 and a single dose of oral apatinib on day 4 in cycle 0 (6 days in total), followed by continuous dosing of fuzuloparib and apatinib in 28-day cycles starting on cycle 1 day 1. Treatment continued until disease progression, intolerable toxicity, or patient withdrawal.
Pharmacokinetic sampling for single dose of fuzuloparib and apatinib was done on day 1 and day 4 (pre-dose and 0.5, 1, 2, 3, 4, 8, 12, 24, 48 h post-dose) of cycle 0, respectively; sampling for continuous dosing of the combination therapy was done on days 1 (pre-dose and 0.5, 1, 2, 3, 4, 8, 12, 24 h post-dose), 8 (pre-dose), 15 (pre-dose), 22 (pre-dose) of cycle 1, and day 1 (pre-dose and 0.5, 1, 2, 3, 4, 8, 12, 24 h post-dose) of cycle 2.
All enrolled patients who received at least one dose of study drug were included in the efficacy and safety analysis. […] Time-to-event endpoints were estimated using the Kaplan–Meier method, with the 95% CIs calculated using the Brookmeyer and Crowley method. PK parameters were calculated using the WinNonlin noncompartmental model. […]

Series [2] has as its system gBRCAmut, platinum-sensitive OC. The arrangement: method as in PMID 33558426. The settings on record: fuzuloparib monotherapy, phase 2, gBRCAmut platinum-sensitive OC; cited from earlier work.

Consider `O=C(c1cc(Cc2n[nH]c(=O)c3ccccc23)ccc1F)N1CCn2nc(C(F)(F)F)nc2C1` [fuzuloparib], for which the “Dose dependence of fuzuloparib plasma exposure (AUC0-12 h)” value in series [1] was “increased in a dose-dependent manner”. In series [2], the “Median PFS” value was 12.0 months and the ORR is listed as 69.9%.

For `N#CC1(c2ccc(NC(=O)c3cccnc3NCc3ccncc3)cc2)CCCC1` [apatinib], in series [1], the “Dose dependence of apatinib plasma exposure (AUC0-∞)” value is “increased in a dose-dependent manner” and the “Reduction of apatinib AUC0-24 h (cycle 2 day 1) vs AUC0-∞ after single apatinib monotherapy dose (cycle 0 day 4)” value is given as 47.7%-65.0%.
